{"source": "paper PMC7604414", "about": "“Favipiravir at high doses has potent antiviral activity in SARS-CoV-2−infected hamsters, whereas hydroxychloroquine lacks activity” (Proceedings of the National Academy of Sciences of the …, 2020)", "key": {"SARS-CoV-2 [1]": {"tested_on": "SARS-CoV-2", "details": "hamster, in vivo"}, "COVID-19 [2]": {"tested_on": "COVID-19", "design": "method as in ref 39 = [39]; 39 C. Chen ., Favipiravir versus arbidol for COVID-19: A randomized clinical trial . medRxiv:10.1101/2020.03.17.20037432 (20 March 2020) .", "details": "cited from earlier work"}, "[3]": {"design": "method as in PMID 32405421", "details": "cited from earlier work"}, "SARS-CoV-2 [4]": {"tested_on": "SARS-CoV-2", "design": "method as in PMID 33741945", "details": "cited from earlier work"}, "[5]": {"test": "Favipiravir plasma trough concentrations in hamsters", "format": "in vivo, Syrian hamsters", "details": "for concentration at 16 h after last treatment: female, hamster, plasma"}, "[6]": {"details": "human, in vivo; cited from earlier work"}, "[7]": {"design": "method as in ref 51 (Wei et al.)", "details": "rats, ref 51 (Wei et al.); cited from earlier work"}, "[8]": {"details": "value applied in pH partition calculation; cited from earlier work"}, "SARS-CoV-2 [9]": {"tested_on": "SARS-CoV-2", "design": "method as in PMID 32492293", "details": "postexposure prophylaxis, high doses of HCQ; cited from earlier work"}, "SARS-CoV-2 [10]": {"tested_on": "SARS-CoV-2", "design": "method as in ref 13 = [13]; 13 P. Maisonnasse ., Hydroxychloroquine in the treatment and prophylaxis of SARS-CoV-2 infection in non-human primates . Research Square:10.21203/RS.3.RS-27223/V1 (6 May 2020) .", "details": "therapeutic and prophylactic setting; cited from earlier work"}, "SARS-CoV-2 [11]": {"tested_on": "SARS-CoV-2", "design": "method as in PMID 32444382", "details": "cited from earlier work"}, "[12]": {"test": "HCQ plasma trough concentrations in hamsters (HPLC-MS)", "details": "female, Syrian, hamster, intraperitoneal, 50 mg/kg/d"}, "COVID-19 [13]": {"tested_on": "COVID-19", "design": "method as in ref 32 = [32]; 32 P. W. Horby , M. Landray , “Press release: No clinical benefit from use of hydroxychloroquine in hospitalised patients with COVID-19” (University of Oxford, 2020) .", "details": "patients admitted with COVID-19; cited from earlier work"}, "SARS-CoV-2 [14]": {"tested_on": "SARS-CoV-2", "details": "interquartile range of 5.4 (25 to 75%); read-out: reported in vitro EC50, median value; cited from earlier work"}, "[15]": {"design": "method as in ref 50 (Tett et al.) and summary of product characteristics of Plaquenil", "details": "ref 50 (Tett et al.) and summary of product characteristics of Plaquenil; cited from earlier work"}, "SARS-CoV-2 [16]": {"tested_on": "SARS-CoV-2", "test": "Reported in vitro EC50 values of HCQ against SARS-CoV-2", "format": "cell-based", "details": "equated to 3 times the reported EC50"}, "[17]": {"test": "Calculation of HCQ blood, total lung and lung compartment concentrations", "design": "species or system Syrian hamsters", "protocol": "Starting from the measured total trough plasma concentrations measured at killing after 4 d or 5 d of HCQ treatment, total lung cytosolic concentrations of HCQ were calculated. First, the mean trough total plasma concentration of HCQ was used as a starting point to estimate the whole blood concentrations considering a blood to plasma ratio of 7.2, as reported by Tett et al. ([50]) and as mentioned in the summary of product characteristics of Plaquenil (Sanofi) (Eq. 1). whole blood concentration=plasma concentration×7.2.\nRelying on the experimental Kp (tissue versus whole blood partition coefficient) values in rats, the total lung tissue concentrations of HCQ were determined. Based on the partition values as reported by Wei et al. ([51]), a lung Kp value of 50 was applied to estimate the total lung concentration (Eq. 2). total lung tissue concentration=mean blood concentration×50.\nBased on these calculations, lung cytosolic HCQ concentrations correspond to 6% of the total lung tissue concentration (Eq. 3). total cytosolic lung tissue concentration=total lung tissue concentration×0.06."}}, "note": "“And” between values parts separate entries of the source, which are not always exact repeats. Identical values can stand only once. Like-named read-outs stand apart in the source and are kept apart here.", "data": [{"smiles": "NC(=O)c1nc(F)c[nH]c1=O", "note": "[favipiravir]", "values": [{"measurement": "decrease of viral RNA in lung vs untreated infected hamsters", "setting": "SARS-CoV-2 [1]", "result": "1.0 log10 RNA copies per mg of lung tissue"}, {"measurement": "effect on viral RNA in ileum and stool", "setting": "SARS-CoV-2 [1]", "result": "a smaller effect"}, {"measurement": "hamsters with infectious virus in the lungs", "setting": "SARS-CoV-2 [1]", "result": "two"}, {"measurement": "histological lung pathology (H&E cumulative severity score)", "setting": "SARS-CoV-2 [1]", "result": "significant improvements"}, {"measurement": "reduction in viral RNA levels in the lungs", "setting": "SARS-CoV-2 [1]", "result": "smaller inhibitory effect"}, {"measurement": "reduction of relative infectivity of lung virus particles", "setting": "SARS-CoV-2 [1]", "result": "136 fold and 172 fold"}, {"measurement": "relative lung viral particle infectivity (infectious particles / viral RNA genomes)", "setting": "SARS-CoV-2 [1]", "result": "did not decrease"}, {"measurement": "weight loss", "setting": "SARS-CoV-2 [1]", "result": "over 5%"}, {"measurement": "weight loss, on average", "setting": "SARS-CoV-2 [1]", "result": 2, "unit": "%"}, {"measurement": "toxicity signs in clinical presentation", "setting": "SARS-CoV-2 [1]; ip", "result": "No toxicity signs"}, {"measurement": "clinical recovery rate vs arbidol control group", "setting": "COVID-19 [2]; COVID-19 patients with hypertension and/or diabetes and critically ill patients", "result": "not significantly different"}, {"measurement": "clinical recovery rate at day 7 vs arbidol control group", "setting": "COVID-19 [2]; COVID-19 patients with mild symptoms", "result": "higher"}, {"measurement": "teratogenicity", "setting": "[3]", "result": "teratogenic"}, {"measurement": "viral replication in the lung", "setting": "SARS-CoV-2 [4]; favipiravir 1,400 mg/kg/d TID started 1 d before intranasal infection", "result": "undetectable"}, {"measurement": "toxicity (weight loss from first day of treatment)", "setting": "SARS-CoV-2 [4]; favipiravir 1,400 mg/kg/d TID", "result": "high toxicity"}, {"measurement": "virus infection in hamsters", "setting": "SARS-CoV-2 [4]; favipiravir ~1,400 mg/kg/d TID", "result": "significant reductions"}, {"measurement": "concentration at 16 h after last treatment", "setting": "[5]; Syrian, intraperitoneal, 1000 mg/kg/d, favipiravir 1,000 mg/kg/d i.p. BID for 4 d, read-out: plasma trough level", "result": "~4400", "unit": "ng/mL"}, {"measurement": "concentration at 16 h after last treatment", "setting": "[5]; intraperitoneal, 1000 mg/kg/d, favipiravir 1,000 mg/kg/d i.p. BID for 4 d, read-out: plasma trough level", "result": "4400 ± 1600", "unit": "ng/mL"}, {"measurement": "concentration at 16 h after last treatment", "setting": "[5]; intraperitoneal, favipiravir 600 mg/kg/d i.p. BID for 4 d, read-out: plasma trough level", "result": "1200 ± 300", "unit": "ng/mL"}, {"measurement": "concentration at 16 h after last treatment", "setting": "[5]; favipiravir 300 mg/kg/d oral BID for 4 d, read-out: average plasma trough concentration", "result": "200 ± 30", "unit": "ng/mL"}, {"measurement": "favipiravir trough concentrations in sentinel hamsters vs infection model", "setting": "[5]; preexposure prophylaxis with 300 and 1,000 mg/kg/d, dosing for 5 d", "result": "similar"}, {"measurement": "median plasma trough concentration", "setting": "[6]", "result": 25.9, "unit": "µg/mL"}]}, {"smiles": "CCN(CCO)CCCC(C)Nc1ccnc2cc(Cl)ccc12", "note": "(stereo not shown) [HCQ, hydroxychloroquine]", "values": [{"measurement": "radiological improvement (micro-CT) vs nontreated animals", "setting": "SARS-CoV-2 [1]", "result": "no radiological improvement"}, {"measurement": "reduction in viral RNA load in the ileum or stool", "setting": "SARS-CoV-2 [1]", "result": "no reduction"}, {"measurement": "reduction of infectious virus titers in the lungs", "setting": "SARS-CoV-2 [1]", "result": "no significant reduction"}, {"measurement": "reduction of viral RNA in lung vs untreated infected hamsters", "setting": "SARS-CoV-2 [1]", "result": "0.3 log10 viral RNA copies per mg of lung"}, {"measurement": "weight loss", "setting": "SARS-CoV-2 [1]", "result": "< 5", "unit": "%"}, {"measurement": "lung Kp (tissue versus whole blood partition coefficient)", "setting": "[7]", "result": 50}, {"measurement": "pKa", "setting": "[8]", "result": 9.67}, {"measurement": "prevention of SARS-CoV-2 infection or COVID-19-like disease", "setting": "SARS-CoV-2 [9]", "result": "did not prevent"}, {"measurement": "viral loads in SARS-CoV-2-infected cynomolgus macaques", "setting": "SARS-CoV-2 [10]", "result": "did not result in a significant decrease"}, {"measurement": "virus titers in SARS-CoV-2-infected ferrets", "setting": "SARS-CoV-2 [11]", "result": "not able to significantly reduce"}, {"measurement": "concentration at 4 d post infection (at killing)", "setting": "[12]", "result": "84 ng/mL and 300 nM"}, {"measurement": "mortality or duration of hospital stay", "setting": "COVID-19 [13]", "result": "did not result in a beneficial effect"}, {"measurement": "EC50", "setting": "SARS-CoV-2 [14]", "result": 4.5, "unit": "µM"}, {"measurement": "blood to plasma ratio", "setting": "[15]", "result": 7.2}, {"measurement": "estimated EC90 (3 times the EC50), target lung concentration", "setting": "SARS-CoV-2 [16]", "result": "13.5 ± 16.3", "unit": "µM"}, {"measurement": "lung cytosolic HCQ concentration as share of total lung tissue concentration", "setting": "[17]; pH partition theory, relative lung compartment volumes", "result": 6, "unit": "%"}, {"measurement": "endosomal/lysosomal HCQ concentration", "setting": "[17]; trough, HCQ sulfate 50 mg/kg/d", "result": 1.9, "unit": "mM"}, {"measurement": "interstitial concentration in lung", "setting": "[17]; trough, HCQ sulfate 50 mg/kg/d", "result": 5.4, "unit": "µM"}, {"measurement": "total lung concentration (Eq. 2)", "setting": "[17]; trough, HCQ sulfate 50 mg/kg/d, blood concentration × 50", "result": "90.2 ± 69.4", "unit": "µM"}, {"measurement": "whole blood concentration (Eq. 1)", "setting": "[17]; trough, HCQ sulfate 50 mg/kg/d, plasma concentration × 7.2", "result": "1.8 ± 1.4", "unit": "µM"}, {"measurement": "total cytosolic lung tissue concentration (Eq. 3)", "setting": "[17]; trough, HCQ sulfate 50 mg/kg/d, total lung × 0.06", "result": "5.4 ± 4.2", "unit": "µM"}]}]}
